Laboratory results: US8952024B2, “Herbicidal pyrimidone derivatives” (E I du Pont de Nemours and Company, priority 2009, dated 2015)

Tests used:
Test in all cases: Test D pre-/postemergence plant response
Type in all cases: in vivo
[1] = test system: Russian thistle (Salsola kali)
How it was run: (§1)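 Both preemergence and postemergence treatments were made at the same time, with the compound in a non-phytotoxic, surfactant-containing solvent mixture. Plants grew in a greenhouse for 14–21 days before visual evaluation, scored from 0 (no effect) to 100 (complete control).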

[2] = test system: Surinam grass (Brachiaria decumbens)
How it was run: as §1

[3] = test system: black mustard (Brassica nigra)
How it was run: as §1

[4] = test system: bluegrass (annual bluegrass, Poa annua)
How it was run: as §1

[5] = test system: chickweed (common chickweed, Stellaria media); conditions: Postemergence
How it was run: as §1

[6] = test system: dallisgrass (Paspalum dilatatum)
How it was run: as §1

[7] = test system: dayflower (Virginia (VA) dayflower, Commelina virginica)
How it was run: as §1

[8] = test system: goosegrass (Eleusine indica)
How it was run: as §1

kochia (Kochia scoparia) = test system: kochia (Kochia scoparia)
How it was run: as §1

[9] = test system: large crabgrass (Digitaria sanguinalis)
How it was run: as §1

[10] = test system: morningglory (pitted morningglory, Ipomoea lacunosa)
How it was run: as §1

[11] = test system: purslane (common purslane, Portulaca oleracea)
How it was run: as §1

[12] = test system: quackgrass (Elytrigia repens)
How it was run: as §1

[13] = test system: ragweed (common ragweed, Ambrosia elatior)
How it was run: as §1

[14] = test system: sandbur (southern sandbur, Cenchrus echinatus)
How it was run: as §1

[15] = test system: signalgrass (broadleaf signalgrass, Brachiaria platyphylla)
How it was run: as §1

[16] = Postemergence, 16 g ai/ha, scale 0 to 100
[17] = Postemergence, 31 g ai/ha, scale 0 to 100
[18] = Postemergence, 62 g ai/ha, scale 0 to 100 (0 no effect, 100 complete control)
[19] = Preemergence, 31 g ai/ha, scale 0 to 100 (0 no effect, 100 complete control)
[20] = Preemergence, 125 g ai/ha, scale 0 to 100
[21] = Postemergence, 125 g ai/ha, scale 0 to 100 (0 no effect, 100 complete control)
[22] = Preemergence, 16 g ai/ha, scale 0 to 100, 0 no effect, 100 complete control
[23] = Preemergence, rate not given, scale 0 to 100, 0 no effect, 100 complete control
[24] = Postemergence, 31 g ai/ha, scale 0 to 100 (0 no effect, 100 complete control)
[25] = Preemergence, 62 g ai/ha, scale 0 to 100

O=C1CCCC(O)=C1C(=O)c1cnc(-c2ccccc2)n(C2CCCCC2)c1=O [Compound 128, 3-cyclohexyl-5-[(2-hydroxy-6-oxo-1-cyclohexen-1-yl)carbonyl]-2-phenyl-4(3H)-pyrimidinone]
Plant response rating, Russian Thistle [1, 16]: 0
Plant response rating, Russian Thistle [1, 17]: 0
Plant response rating, Russian Thistle [1, 18]: 20
Plant response rating, Russian Thistle [1, 19]: 0
Plant response rating, Russian Thistle [1, 20]: 100
Plant response rating, Surinam Grass [2, 17]: 25
Plant response rating, Surinam Grass [2, 21]: 50
Plant response rating, Surinam Grass [2, 18]: 30
Plant response rating, Surinam Grass [2, 22]: 0
Plant response rating, Surinam Grass [2, 19]: 35
Plant response rating, Surinam Grass [2, 20]: 90
Plant response rating, Surinam Grass [2, 23]: 80
Plant response rating, Black Mustard [3, 16]: 95
Plant response rating, Black Mustard [3, 24]: 95
Plant response rating, Black Mustard [3, 21]: 95
Plant response rating, Black Mustard [3, 18]: 95
Plant response rating, Black Mustard [3, 22]: 60
Plant response rating, Black Mustard [3, 19]: 60
Plant response rating, Black Mustard [3, 25]: 85
Plant response rating, Black Mustard [3, 20]: 95
Plant response rating, Bluegrass [4, 16]: 0
Plant response rating, Bluegrass [4, 24]: 0
Plant response rating, Bluegrass [4, 21]: 0
Plant response rating, Bluegrass [4, 18]: 0
Plant response rating, Bluegrass [4, 22]: 0
Plant response rating, Bluegrass [4, 19]: 0
Plant response rating, Bluegrass [4, 25]: 25
Plant response rating, Bluegrass [4, 20]: 25
Plant response rating, Chickweed ([5]; 16 g ai/ha, scale 0 to 100): 60
Plant response rating, Chickweed ([5]; 125 g ai/ha, scale 0 to 100 (0 no effect, 100 complete control)): 70
Plant response rating, Chickweed ([5]; 62 g ai/ha, scale 0 to 100 (0 no effect, 100 complete control)): 65
Plant response rating, Dallisgrass [6, 16]: 10
Plant response rating, Dallisgrass [6, 17]: 20
Plant response rating, Dallisgrass [6, 21]: 60
Plant response rating, Dallisgrass [6, 18]: 30
Plant response rating, Dallisgrass [6, 22]: 0
Plant response rating, Dallisgrass [6, 19]: 20
Plant response rating, Dallisgrass [6, 25]: 65
Plant response rating, Dallisgrass [6, 20]: 98
Plant response rating, Dayflower, VA [7, 16]: 50
Plant response rating, Dayflower, VA [7, 17]: 50
Plant response rating, Dayflower, VA [7, 21]: 70
Plant response rating, Dayflower, VA [7, 18]: 60
Plant response rating, Dayflower, VA [7, 19]: 0
Plant response rating, Dayflower, VA [7, 25]: 10
Plant response rating, Dayflower, VA [7, 20]: 25
Plant response rating, Goosegrass [8, 16]: 35
Plant response rating, Goosegrass [8, 17]: 40
Plant response rating, Goosegrass [8, 21]: 70
Plant response rating, Goosegrass [8, 18]: 65
Plant response rating, Goosegrass [8, 22]: 0
Plant response rating, Goosegrass [8, 19]: 5
Plant response rating, Goosegrass [8, 25]: 65
Plant response rating, Goosegrass [8, 20]: 90
Plant response rating, Kochia (kochia (Kochia scoparia); [16]): 20
Plant response rating, Kochia (kochia (Kochia scoparia); [17]): 30
Plant response rating, Kochia (kochia (Kochia scoparia); [21]): 40
Plant response rating, Kochia (kochia (Kochia scoparia); [18]): 30
Plant response rating, Kochia (kochia (Kochia scoparia); [22]): 0
Plant response rating, Kochia (kochia (Kochia scoparia); [19]): 0
Plant response rating, Kochia (kochia (Kochia scoparia); [25]): 50
Plant response rating, Kochia (kochia (Kochia scoparia); [20]): 50
Plant response rating, Crabgrass, Large [9, 16]: 40
Plant response rating, Crabgrass, Large [9, 17]: 50
Plant response rating, Crabgrass, Large [9, 21]: 70
Plant response rating, Crabgrass, Large [9, 18]: 60
Plant response rating, Crabgrass, Large [9, 22]: 0
Plant response rating, Crabgrass, Large [9, 19]: 25
Plant response rating, Crabgrass, Large [9, 25]: 60
Plant response rating, Morningglory [10, 16]: 65
Plant response rating, Morningglory [10, 17]: 65
Plant response rating, Morningglory [10, 21]: 70
Plant response rating, Morningglory [10, 18]: 70
Plant response rating, Morningglory [10, 19]: 0
Plant response rating, Morningglory [10, 25]: 0
Plant response rating, Morningglory [10, 20]: 90
Plant response rating, Purslane [11, 16]: 30
Plant response rating, Purslane [11, 17]: 30
Plant response rating, Purslane [11, 21]: 50
Plant response rating, Purslane [11, 18]: 30
Plant response rating, Purslane [11, 22]: 0
Plant response rating, Purslane [11, 19]: 0
Plant response rating, Purslane [11, 25]: 100
Plant response rating, Purslane [11, 20]: 100
Plant response rating, Quackgrass [12, 16]: 0
Plant response rating, Quackgrass [12, 17]: 0
Plant response rating, Quackgrass [12, 21]: 5
Plant response rating, Quackgrass [12, 18]: 0
Plant response rating, Quackgrass [12, 22]: 0
Plant response rating, Quackgrass [12, 19]: 0
Plant response rating, Quackgrass [12, 20]: 0
Plant response rating, Ragweed [13, 17]: 75
Plant response rating, Ragweed [13, 21]: 90
Plant response rating, Ragweed [13, 18]: 90
Plant response rating, Ragweed [13, 22]: 0
Plant response rating, Ragweed [13, 19]: 75
Plant response rating, Ragweed [13, 20]: 100
Plant response rating, Sandbur [14, 16]: 5
Plant response rating, Sandbur [14, 17]: 5
Plant response rating, Sandbur [14, 21]: 35
Plant response rating, Sandbur [14, 18]: 5
Plant response rating, Sandbur [14, 22]: 0
Plant response rating, Sandbur [14, 19]: 0
Plant response rating, Sandbur [14, 20]: 20
Plant response rating, Sandbur [14, 23]: 20
Plant response rating, Signalgrass [15, 16]: 0
Plant response rating, Signalgrass [15, 17]: 30
Plant response rating, Signalgrass [15, 21]: 35
Plant response rating, Signalgrass [15, 18]: 35
Plant response rating, Signalgrass [15, 22]: 0
Plant response rating, Signalgrass [15, 19]: 0
Plant response rating, Signalgrass [15, 20]: 5
